Patent US10206388B2, “Formulation component” (SYNGENTA LIMITED, priority 2011, dated 2019)

Experiments:
Type in all cases: in vivo
[1] = test system: four weed species (ABUTH, CHEAL, DIGSA, SETVI); assay: Glasshouse weed test, nicosulfuron with adjuvants, mean across species; details: Table 27, Example 24: nicosulfuron 30 or 60 g/ha; mean over two rates, three replicates, 14 and 21 days
Protocol: The aromatic ester Finsolv® TN (C12-C15 alkyl benzoate) was tested in a glasshouse against four weed species using the herbicide nicosulfuron. An agrochemical composition was prepared containing 0.2% v/v of the adjuvant in a track sprayer, and was applied at a volume of 200 liters per hectare. Nicosulfuron was applied at either 30 or 60 grams of pesticide per hectare on each of the weed species. The weed species and their growth stage at spraying were Abutilon theophrasti (ABUTH; growth stage 13), Chenopodium album (CHEAL; growth stage 14), Digitaria sanguinalis (DIGSA; growth stage 13), and Setaria viridis (SETVI; growth stage 13).
(§1) Each spray test replicated three times. The efficacy of the herbicide was assessed visually and expressed as a percentage of the leaf area killed. Samples were assessed at time periods of 7, 14 and 20 days following application. The results shown in Table 6 below are mean averages over the two rates of nicosulfuron, three replicates and the three assessment timings, and are compared to the efficacy of nicosulfuron in the absence of an adjuvant, and nicosulfuron in the presence of the commercially available tank-mix adjuvant, Atplus411F®.
A second experiment was conducted to assess the efficacy of Finsolv® TN as an adjuvant in compositions of nicosulfuron. This was carried out as outlined above, with the following change: samples were assessed at 14 and 20 days post application.
The results shown in Table 7 below are mean averages over the two rates of nicosulfuron, three replicates and the two assessment timings, and are compared to the efficacy of nicosulfuron in the absence of an adjuvant, and nicosulfuron in the presence of the commercially available tank-mix adjuvant, Atplus411F®.
The aromatic esters Benzoate 1 (see Example 9), Benzoflex 354 (2,2,4-trimethyl-1,3-pentanediol dibenzoate) and Finsolv® SB (stearyl benzoate) were tested in a glasshouse against four weed species using the herbicide nicosulfuron. Nicosulfuron was applied at either 30 or 60 grams of pesticide per hectare on each of the weed species. The weed species and their growth stage at spraying were Abutilon theophrasti (ABUTH; growth stage 13), Chenopodium album (CHEAL; growth stage 14), Digitaria sanguinalis (DIGSA; growth stage 13), and Setaria viridis (SETVI; growth stage 13).
as §1, with “of” for “of 7,”, “Table 14” for “Table 6”, “the two” for “the three”
An agrochemical composition was prepared containing 0.2% v/v of the adjuvant in a track sprayer and was applied at a volume of 200 liters per hectare. The adjuvant oils were emulsified using a small amount of the surfactant Pluronic® PE 10500, which was present in the composition at a concentration of 0.02% v/v. Nicosulfuron was applied at either 30 or 60 grams of pesticide per hectare on each of the weed species. The weed species and their growth stage at spraying were Abutilon theophrasti (ABUTH; growth stage 13), Chenopodium album (CHEAL; growth stage 14-15), Digitaria sanguinalis (DIGSA; growth stage 14), and Setaria viridis (SETVI; growth stage 13-14).
Each spray test replicated three times. The efficacy of the herbicide was assessed visually and expressed as a percentage of the leaf area killed. Samples were assessed at time periods of 14 and 21 days following application. […]

Setaria viridis (SETVI) = assay: Glasshouse weed test, pinoxaden with adjuvants; details: Table 12, Example 8: pinoxaden 7.5 or 15 g/ha; adjuvant 0.2% v/v; Atlas G5000 in spray tank; mean over two rates, three replicates, 7, 14 and 20 days
Protocol: (§2) The aromatic ester Finsolv® TN (C12-C15 alkyl benzoate) was tested in a glasshouse against four weed species using the herbicide pinoxaden. An agrochemical composition was prepared containing 0.2% v/v of the adjuvant in a track sprayer and was applied at a volume of 200 liters per hectare. Pinoxaden was applied at either 7.5 or 15 grams of pesticide per hectare on each of the weed species. […] The weed species and their growth stage at spraying were Alopecurus myosuroides (ALOMY; growth stage 13), Avena fatua (AVEFA; growth stage 12); Lolium perenne (LOLPE; growth stage 13), Setaria viridis (SETVI; growth stage 14).
as §1, with “test was” for “test”, “12” for “6”, “pinoxaden,” for “nicosulfuron,”, “pinoxaden” for “nicosulfuron”, “adjuvant” for “adjuvant,”, “triethylhexyl phosphate.” for “the commercially available tank-mix adjuvant, Atplus411F®.”

Lolium perenne (LOLPE) = assay: Glasshouse weed test, pinoxaden with adjuvants; details: Table 12, Example 8: pinoxaden 7.5 or 15 g/ha; adjuvant 0.2% v/v; Atlas G5000 in spray tank; mean over two rates, three replicates, 7, 14 and 20 days
Protocol: as §2
as §1, with “test was” for “test”, “12” for “6”, “pinoxaden,” for “nicosulfuron,”, “pinoxaden” for “nicosulfuron”, “adjuvant” for “adjuvant,”, “triethylhexyl phosphate.” for “the commercially available tank-mix adjuvant, Atplus411F®.”

Avena fatua (AVEFA) = assay: Glasshouse weed test, pinoxaden with adjuvants; details: Table 12, Example 8: pinoxaden 7.5 or 15 g/ha; adjuvant 0.2% v/v; Atlas G5000 in spray tank; mean over two rates, three replicates, 7, 14 and 20 days
Protocol: as §2
as §1, with “test was” for “test”, “12” for “6”, “pinoxaden,” for “nicosulfuron,”, “pinoxaden” for “nicosulfuron”, “adjuvant” for “adjuvant,”, “triethylhexyl phosphate.” for “the commercially available tank-mix adjuvant, Atplus411F®.”

[2] = test system: Alopecurus myosuroides (ALOMY); assay: Glasshouse weed test, pinoxaden with adjuvants; details: Table 12, Example 8: pinoxaden 7.5 or 15 g/ha; adjuvant 0.2% v/v; Atlas G5000 in spray tank; mean over two rates, three replicates, 7, 14 and 20 days
Protocol: as §2
as §1, with “test was” for “test”, “12” for “6”, “pinoxaden,” for “nicosulfuron,”, “pinoxaden” for “nicosulfuron”, “adjuvant” for “adjuvant,”, “triethylhexyl phosphate.” for “the commercially available tank-mix adjuvant, Atplus411F®.”

[3] = test system: four weed species (ALOMY, AVEFA, LOLPE, SETVI); assay: Glasshouse weed test, pinoxaden with adjuvants, mean across species; details: mean over two rates
Protocol: as §2
as §1, with “test was” for “test”, “12” for “6”, “pinoxaden,” for “nicosulfuron,”, “pinoxaden” for “nicosulfuron”, “adjuvant” for “adjuvant,”, “triethylhexyl phosphate.” for “the commercially available tank-mix adjuvant, Atplus411F®.”
A second experiment was conducted to assess the efficacy of Finsolv® TN as an adjuvant for pinoxaden. This was carried out as outlined above, with the following change: samples were assessed at 14 and 20 days post application. The results shown below in Table 13 are mean averages over the two rates of pinoxaden, three replicates, the two assessment timings, and the four weed species, and are compared to the efficacy of pinoxaden in the absence of an adjuvant and pinoxaden in the presence of the common adjuvant methyl oleate.
as §2, with “An” for “The aromatic ester Finsolv® TN (C12-C15 alkyl benzoate) was tested in a glasshouse against four weed species using the herbicide pinoxaden. An”
as §1, with “test was” for “test”, “17” for “6”, “pinoxaden,” for “nicosulfuron,”, “pinoxaden” for “nicosulfuron”, “adjuvant” for “adjuvant,”, “Brij®96.” for “the commercially available tank-mix adjuvant, Atplus411F®.”
An agrochemical composition was prepared containing 0.2% v/v of the adjuvant in a track sprayer and was applied at a volume of 200 liters per hectare. The adjuvant oils were emulsified using a small amount of the surfactant Pluronic® PE 10500, which was present in the composition at a concentration of 0.02% v/v. Pinoxaden was applied at either 7.5 or 15 grams of pesticide per hectare on each of the weed species. […] The weed species and their growth stage at spraying were Alopecurus myosuroides (ALOMY; growth stage 13), Avena fatua (AVEFA; growth stage 12); Lolium perenne (LOLPE; growth stage 13), Setaria viridis (SETVI; growth stage 13-14).
Each spray test was replicated three times. The efficacy of the herbicide was assessed visually and expressed as a percentage of the leaf area killed. Samples were assessed at time periods of 14 and 21 days following application. The results shown in Table 18 below are mean averages over the two rates of pinoxaden, three replicates and the two assessment timings, and are compared to the efficacy of pinoxaden in the absence of an adjuvant and pinoxaden in the presence of tris 2ethylhexylphosphate (TEHP).
The aromatic esters Finsolv® TN and the aromatic ester ethoxylate Dermol 25-3B were tested in a glasshouse against four weed species using the herbicide pinoxaden. […]

Question: Which results are given for `CCc1cc(C)cc(CC)c1-c1c(OC(=O)C(C)(C)C)n2n(c1=O)CCOCC2` [Pinoxaden, pinoxaden]?
Answer: Mean percentage kill, Mean across species [1]: 46.6C %; Mean percentage kill SETVI (Setaria viridis (SETVI)): 0.8 B %; Mean percentage kill LOLPE (Lolium perenne (LOLPE)): 5.0 B %; Mean percentage kill AVEFA (Avena fatua (AVEFA)): 2.8 B %; Mean percentage kill ALOMY [2]: 1.1 B %; Mean percentage kill, Mean across species ([3]; Table 12, Example 8: pinoxaden 7.5 or 15 g/ha, adjuvant 0.2% v/v, Atlas G5000 in spray tank, three replicates, 7, 14 and 20 days): 2.43 B %; Mean percentage kill, Mean across species ([3]; Table 13, Example 8 second experiment: pinoxaden 7.5 or 15 g/ha, adjuvant 0.2% v/v, three replicates, 14 and 20 days, four weed species): 0.5 B %; Mean percentage kill, Mean across species ([3]; Table 17, Example 13: pinoxaden 7.5 or 15 g/ha, adjuvant 0.2% v/v, Atlas G5000 in spray tank, three replicates, 7, 14 and 20 days): 1.8 C %; Mean percentage kill, Mean across species ([3]; Table 18, Example 14: pinoxaden 7.5 or 15 g/ha, adjuvant 0.2% v/v emulsified with Pluronic PE 10500 0.02% v/v, three replicates, 14 and 21 days): 2.6B %; Mean percentage kill, Mean across species ([3]; Table 22, Example 18: absence of an adjuvant, pinoxaden 7.5 or 15 g/ha, three replicates, 14 and 21 days): 3.6E %; Mean percentage kill, Mean across species ([3]; Table 26, Example 23: pinoxaden 7.5 or 15 g/ha, adjuvant 0.2% v/v, Atlas G5000, three replicates, 14 and 21 days): 4.0C %; Mean percentage kill, Mean across species ([3]; Table 32, Example 32: pinoxaden 7.5 or 15 g/ha, adjuvant 0.2% v/v, Atlas G5000, three replicates, 14 and 21 days): 3.6B %
